According to article PMC11544891, “Uncovering the Potential Somatic Angiotensin-Converting Enzyme (sACE) Inhibitory Capacity of Peptides from Acheta domesticus: Insights from In Vitro Gastrointestinal Digestion” (Foods, 2024):
Where “and” joins values, the source holds several entries; their conditions need not be identical. Equal values may be shown once. Read-outs that look alike come from different tables or passages of the source. Residues, ends and D or L forms follow the SMILES beside them. No end group written: not given here.

How the values were obtained:
[1] = tested on: sACE; conditions: cited from earlier work
[2] = tested on: thoracic aortic rings; parameters: method as in earlier work; conditions: Table S2; ref [19] of supplement; cited from earlier work
[3] = tested on: spontaneously hypertensive rats (SHR); conditions: cited from earlier work; for anti-hypertensive activity in SHR: Table S2, ref [19] of supplement
[4] = molecular target: T1, somatic angiotensin-converting enzyme (sACE) (Oryctolagus cuniculus, UniProt P12822); assay: sACE-inhibition fluorimetric assay (o-Abz-Gly-p-Phe(NO2)-Pro-OH substrate); assay type: biochemical, rabbit; conditions: synthetic peptides; mean ± SD, n = 3; read-out: ACE-Inhibitory Capacity Expressed as IC50 (converted)
T1 construct: the ACE working solution was prepared according to Murray et al. [28] using rabbit lung; from tissue; host or cells: rabbit lung
T1 sequence (P12822 34-1310): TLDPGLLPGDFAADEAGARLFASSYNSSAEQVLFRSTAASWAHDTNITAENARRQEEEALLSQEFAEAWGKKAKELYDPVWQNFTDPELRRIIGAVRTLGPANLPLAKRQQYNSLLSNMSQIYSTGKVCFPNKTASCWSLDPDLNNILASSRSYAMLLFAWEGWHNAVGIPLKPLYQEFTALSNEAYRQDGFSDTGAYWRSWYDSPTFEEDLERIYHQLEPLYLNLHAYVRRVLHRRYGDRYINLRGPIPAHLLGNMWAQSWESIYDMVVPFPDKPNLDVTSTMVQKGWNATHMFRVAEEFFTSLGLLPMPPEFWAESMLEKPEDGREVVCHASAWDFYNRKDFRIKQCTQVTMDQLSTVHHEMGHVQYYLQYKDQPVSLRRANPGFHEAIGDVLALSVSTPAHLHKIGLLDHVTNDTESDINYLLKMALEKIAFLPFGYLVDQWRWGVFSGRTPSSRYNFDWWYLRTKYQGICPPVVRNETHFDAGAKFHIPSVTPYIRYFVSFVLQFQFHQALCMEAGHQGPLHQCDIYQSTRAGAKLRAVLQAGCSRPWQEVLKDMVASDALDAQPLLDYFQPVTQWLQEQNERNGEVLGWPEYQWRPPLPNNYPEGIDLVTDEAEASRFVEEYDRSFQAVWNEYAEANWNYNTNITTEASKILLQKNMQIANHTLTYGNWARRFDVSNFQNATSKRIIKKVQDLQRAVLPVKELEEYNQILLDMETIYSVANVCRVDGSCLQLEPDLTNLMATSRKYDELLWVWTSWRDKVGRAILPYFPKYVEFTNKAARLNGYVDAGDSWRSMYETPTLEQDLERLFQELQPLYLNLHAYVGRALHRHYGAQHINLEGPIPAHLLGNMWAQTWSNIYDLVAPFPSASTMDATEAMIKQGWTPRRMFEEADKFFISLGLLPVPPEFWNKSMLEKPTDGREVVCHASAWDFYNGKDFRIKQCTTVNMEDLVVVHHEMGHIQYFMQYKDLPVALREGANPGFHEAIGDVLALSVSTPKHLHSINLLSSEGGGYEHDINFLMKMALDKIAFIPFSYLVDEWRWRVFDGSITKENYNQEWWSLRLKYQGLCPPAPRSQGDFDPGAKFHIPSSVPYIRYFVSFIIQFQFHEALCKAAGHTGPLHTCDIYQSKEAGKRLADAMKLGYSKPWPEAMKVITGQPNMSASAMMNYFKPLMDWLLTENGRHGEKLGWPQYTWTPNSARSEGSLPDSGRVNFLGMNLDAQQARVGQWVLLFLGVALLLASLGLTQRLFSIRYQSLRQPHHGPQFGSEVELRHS
Description: The sACE-inhibitory capacity was determined using a fluorimetric assay, as reported by Tavares et al., with some modifications. Briefly, the ACE working solution was prepared according to Murray et al. using rabbit lung posteriorly diluted in 0.15 M Tris-base buffer (pH 8.3) with 0.1 mM ZnCl2. A total of 40 µL of the working solution was added to each 96-well microplate well (Porvair, Norfolk, UK), then adjusted to 80 µL by adding distilled water to the blank (B), control (C), or samples (S). The enzyme reaction was started by adding 160 µL of 0.45 mM o-Abz-Gly-p-Phe(NO2)-Pro-OH dissolved in 0.15 M Tris-base buffer (pH 8.3) containing 1.125 M NaCl, and the mixture was incubated at 37 °C for 30 min. The fluorescence generated was measured using a multiscan microplate fluorimeter (FLUOstar optima, BMG Labtech, Ortenberg, Germany) with excitation and emission wavelengths of 350 and 420 nm, respectively. Data were processed with the software FLUOstar control (version 1.32 R2, BMG Labtech, Ortenberg, Germany). The assay was performed in triplicate, and the resulting data were subjected to a nonlinear fit using GraphPad Prism 5 to determine the IC50 (half maximal inhibitory concentration) values. The resulting data (n = 3) were expressed as the mean ± SD (standard deviation).

[5] = Table S2, peptides from in vitro digestion (pepsin, pancreatin) of edible insects, ref [14] of supplement
[6] = Table S2, ref [17] of supplement, read-out: In Vitro (IC50)
[7] = Table S2, T. molitor larvae, ref [21] of supplement, read-out: In Vitro (IC50)
[8] = peptides found in fermented milks, read-out: IC50 values for sACE
[9] = Table S2, ref [3] of supplement, read-out: In Vitro (IC50)

Compound: AIGVGAIER [literature peptide from Schistocerca gregaria digestion]
- In Vitro (IC50) [1, 5]: 14.43 ± 0.02 µg/mL

Compound: FDPFPK (LCFDPFPK) [literature peptide from Schistocerca gregaria digestion]
- In Vitro (IC50) [1, 5]: 79.25 ± 0.04 µg/mL

Compound: LSRVP
- IC50 [1, 6]: 52.7 ± 4.04 µM

Compound: Ala-Val-Phe [AVF]
- inhibitory activity in thoracic aortic rings from male Wistar rats [2]: no inhibitory activity
- IC50 ([1]; Table S2, ref [18] of supplement, read-out: In Vitro (IC50)): 2120 µM
- IC50 ([1]; Table S2, synthesized peptides, ref [19] of supplement, read-out: In Vitro (IC50)): 1370 to 1430 µM
- anti-hypertensive activity in SHR [3]: anti-hypertensive activity

Compound: Val-Phe [VF]
- inhibitory activity in thoracic aortic rings from male Wistar rats [2]: inhibitory activity
- IC50 ([1]; Table S2, […], ref [19] of supplement, read-out: In Vitro (IC50)): 120 to 144 µM
- anti-hypertensive activity in SHR [3]: anti-hypertensive activity
- in vivo antihypertensive capacity [3]: demonstrated in vivo antihypertensive capacity

Compound: LLKPY
- IC50 ([1]; Table S2, ref [2] of supplement, read-out: In Vitro (IC50)): 54.9 µM

Compound: LAPSTIK [literature peptide from Gryllodes sigillatu digestion]
- In Vitro (IC50) [1, 5]: 11.14 ± 0.08 µg/mL

Compound: HILG
- IC50 [1, 7]: 2820 µM

Compound: VPP
- IC50 [1, 8]: 9 µM

Compound: GAMVVH
- IC50 ([1]; Table S2, ref [7] of supplement, read-out: In Vitro (IC50)): 19.4 ± 0.21 µM

Compound: AGDDAPR [literature peptide from Tenebrio molitor protein concentrate digestion]
- IC50 [1]: 8.34 µg/mL

Compound: IIIGW [IIIGW]
- IC50 [4]: 54.6 µM and 54.5 µM

Compound: APPPKK
- In Vitro (IC50) ([1]; Table S2, ref [9] of supplement): 47 µg/mL

Compound: PGKVHIT [literature peptide from Apis mellifera pupae hydrolysate]
- IC50 [1, 9]: 224 µM

Compound: YETGNGIK [literature peptide from Schistocerca gregaria digestion]
- IC50 [1]: 3.25 µg/mL

Compound: PPVLVFV [literature peptide from Apis mellifera pupae hydrolysate]
- IC50 [1, 9]: 47.8 µM

Compound: IPP
- IC50 [1, 8]: 5 µM

Compound: NIKY
- IC50 [1, 7]: 52.2 µM

Compound: CC[C@H](C)[C@H](NC(=O)[C@@H](N)CCC(N)=O)C(=O)N[C@H](C(=O)N[C@@H](Cc1c[nH]c2ccccc12)C(=O)O)C(C)C [QIVW] (H-QIVW-OH)
- IC50 [4]: 140 µM

Compound: GKDAVIV [literature peptide from Schistocerca gregaria digestion]
- In Vitro (IC50) [1, 5]: 12.82 ± 0.02 µg/mL

Compound: RYL
- IC50 ([1]; peptide from Bombyx mori hydrolysates, read-out: IC50): 3.31 µM

Compound: QGLGY
- IC50 [1, 7]: 264 µM

Compound: FFGT
- IC50 [1, 6]: 19.4 ± 1.7 µM

Compound: AVQPCF [AVQPCF]
- IC50 [4]: 3.69 µM

Compound: YDDGSYKPH [literature peptide from Tenebrio molitor larvae digestion]
- IC50 [1]: 5.81 µg/mL

Compound: YAN
- In Vitro (IC50) ([1]; Table S2, T. molitor larva flour, alcalase, ref [20] of supplement): 17 µg/mL
- IC50 [1, 7]: 172 µM

Compound: VAPEEHPV [literature peptide from Gryllodes sigillatu digestion]
- In Vitro (IC50) [1, 5]: 18.85 ± 0.05 µg/mL

Compound: IIAPPER [literature peptide from Gryllodes sigillatu digestion]
- IC50 [1]: 6.93 µg/mL

Compound: KVEGDLK [literature peptide from Gryllodes sigillatu digestion]
- IC50 [1]: 3.67 µg/mL

Compound: AAAPVAVAK [literature peptide from Tenebrio molitor larvae digestion]
- IC50 [1]: 8.31 µg/mL

Compound: PIVCF [PIVCF]
- IC50 [4]: 4.64 µM and 4.63 µM

Compound: CC(C)[C@H](NC(=O)[C@@H](N)CC(=O)O)C(=O)N[C@@H](Cc1c[nH]c2ccccc12)C(=O)O [DVW] (H-Asp-Val-Trp-OH)
- IC50 [4]: 195 µM and 196 µM

Compound: ASL
- IC50 ([1]; Table S2, ref [5] of supplement, read-out: In Vitro (IC50)): 102 µM

Compound: KHV
- IC50 ([1]; Table S2, ref [8] of supplement, read-out: In Vitro (IC50)): 12.8 µM

Compound: NYVADGLG [literature peptide from Tenebrio molitor larvae digestion]
- In Vitro (IC50) [1, 5]: 12.09 ± 0.08 µg/mL

Compound: AVFPSIVGR [literature peptide from Apis mellifera pupae hydrolysate]
- IC50 ([1]; read-out: IC50): 6.64 µM

Compound: GNPWM
- IC50 ([1]; Table S2, ref [10] of supplement, read-out: In Vitro (IC50)): 21.7 µM

Compound: CAIAW [CAIAW]
- IC50 [4]: 6.56 µM and 6.55 µM
